Laboratory results: patent US20160022684A1, “BET INHIBITOR AND BRUTON'S TYROSINE KINASE INHIBITOR COMBINATIONS” (Pharmacyclics LLC, priority 2014, published 2016)

Key:
OCI-LY10 = test: Combined drug treatment cell viability (CellTiter-Glo), ibrutinib with BET inhibitors, OCI-LY10; format: cell-based; details: OCI-LY-10, JQ1 1 uM, OTX015 1 uM or medium alone (row), 3 days
Method: (§1) The DLBCL cell lines used during the experiments included TMD8, OCI-LY3, OCI-LY10, U-2932 and SU-DHL-2. DLBCL cells at either 1×10^4 cells or 2×10^4 cells were plated onto each well of a 96-W plate (Table 1). […] The 96-W plate was then incubated for 3 days. Cell viability was examined using a CellTiter-Glo assay. A 40 μL of CellTiter-Glo reagent was added directly into each well of the 96-W plate. The plate was then shaken on a Shaker ([…]) at speed 5 for 10-20 min at room temperature. Next, about 100 μL of the mixed medium was transferred to a white, non-transparent, flat bottom 96-W plate for assaying. […] Measurements were taken at room temperature. CellTiter-Glow reagents were thawed prior to use. Cells pre-plated onto a second 96-W plate and incubated at room temperature for 30 minutes were used for calibration purposes. […] CI is a quantitative description of the interaction property of the combination of two drugs.

SU-DHL-2 = test: Combined drug treatment cell viability (CellTiter-Glo), ibrutinib with BET inhibitors, SU-DHL-2; format: cell-based; details: JQ1 100 nM, OTX015 1 uM (Table 2) or medium alone (row), 3 days
Method: as §1

[1] = system: activated B-cell like (ABC) subtype of DLBCL; details: patients with ABC subtype of DLBCL; cited from earlier work
U-2932 = test: Combined drug treatment cell viability (CellTiter-Glo), ibrutinib with BET inhibitors, U-2932; format: cell-based; details: U2932, JQ1 20 nM, OTX015 50 nM (Table 2) or medium alone (row), 3 days
Method: as §1

TMD8 = test: Combined drug treatment cell viability (CellTiter-Glo), ibrutinib with BET inhibitors, TMD8; format: cell-based; details: JQ1 20 nM, OTX015 100 nM or medium alone (row), 3 days
Method: as §1

OCI-LY3 = test: Combined drug treatment cell viability (CellTiter-Glo), ibrutinib with BET inhibitors, OCI-LY3; format: cell-based; details: OCI-LY-3, JQ1 1 uM, OTX015 1 uM or medium alone (row), 3 days
Method: as §1

[2] = ibrutinib 0.0256 nM with I-BET151 5 uM
[3] = ibrutinib 0.64 nM with I-BET151 5 uM
[4] = ibrutinib 3.2 nM with I-BET151 5 uM
[5] = ibrutinib 16 nM with I-BET151 5 uM
[6] = ibrutinib 80 nM with I-BET151 5 uM
[7] = ibrutinib 400 nM with I-BET151 5 uM
[8] = ibrutinib 2000 nM with I-BET151 5 uM
[9] = ibrutinib 10000 nM with I-BET151 5 uM
[10] = ibrutinib […] with I-BET151 5 uM
[11] = ibrutinib 0.0256 nM with I-BET151 200 nM
[12] = ibrutinib 0.64 nM with I-BET151 200 nM
[13] = ibrutinib 3.2 nM with I-BET151 200 nM
[14] = ibrutinib 16 nM with I-BET151 200 nM
[15] = ibrutinib 80 nM with I-BET151 200 nM
[16] = ibrutinib 400 nM with I-BET151 200 nM
[17] = ibrutinib 2000 nM with I-BET151 200 nM
[18] = ibrutinib 10000 nM with I-BET151 200 nM
[19] = ibrutinib […] with I-BET151 200 nM

C=CC(=O)N1CCC[C@@H](n2nc(-c3ccc(Oc4ccccc4)cc3)c3c(N)ncnc32)C1 [ibrutinib, 1-((R)-3-(4-amino-3-(4-phenoxyphenyl)-1H-pyrazolo[3,4-d]pyrimidin-1-yl)piperidin-1-yl)prop-2-en-1-one]
luminescent signals (OCI-LY10; [2]): 61548.88
luminescent signals (OCI-LY10; [3]): 63983.91
luminescent signals (OCI-LY10; [4]): 51190.81
luminescent signals (OCI-LY10; [5]): 27324.38
luminescent signals (OCI-LY10; [6]): 23511.43
luminescent signals (OCI-LY10; [7]): 23784.91
luminescent signals (OCI-LY10; [8]): 24452.84
luminescent signals (OCI-LY10; [9]): 24826.24
luminescent signals (OCI-LY10; [10]): 68196.56
luminescent signals (SU-DHL-2; ibrutinib 0.0256 nM with I-BET151 2 uM): 141202
luminescent signals (SU-DHL-2; ibrutinib 0.64 nM with I-BET151 2 uM): 159399
luminescent signals (SU-DHL-2; ibrutinib 3.2 nM with I-BET151 2 uM): 161613.5
luminescent signals (SU-DHL-2; ibrutinib 16 nM with I-BET151 2 uM): 155353.5
luminescent signals (SU-DHL-2; ibrutinib 80 nM with I-BET151 2 uM): 164140.7
luminescent signals (SU-DHL-2; ibrutinib 400 nM with I-BET151 2 uM): 159908.6
luminescent signals (SU-DHL-2; ibrutinib 2000 nM with I-BET151 2 uM): 154426.1
luminescent signals (SU-DHL-2; ibrutinib 10000 nM with I-BET151 2 uM): 111485.8
luminescent signals (SU-DHL-2; ibrutinib […] with I-BET151 2 uM): 146159.1
overall response rate [1]: 41%
overall survival [1]: 9.7 month
luminescent signals (U-2932; [11]): 63123.8
luminescent signals (U-2932; [12]): 53722.16
luminescent signals (U-2932; [13]): 53031.79
luminescent signals (U-2932; [14]): 51023.93
luminescent signals (U-2932; [15]): 49777.58
luminescent signals (U-2932; [16]): 46009.54
luminescent signals (U-2932; [17]): 46858.01
luminescent signals (U-2932; [18]): 37935.94
luminescent signals (U-2932; [19]): 57150.28
luminescent signals (TMD8; [11]): 32496.06
luminescent signals (TMD8; [12]): 29180.29
luminescent signals (TMD8; [13]): 31383.77
luminescent signals (TMD8; [14]): 27190.31
luminescent signals (TMD8; [15]): 28263.05
luminescent signals (TMD8; [16]): 25674.76
luminescent signals (TMD8; [17]): 23421.2
luminescent signals (TMD8; [18]): 10819.72
luminescent signals (TMD8; [19]): 32828.16
luminescent signals (OCI-LY3; [2]): 63957.7
luminescent signals (OCI-LY3; [3]): 63322.7
luminescent signals (OCI-LY3; [4]): 66789.02
luminescent signals (OCI-LY3; [5]): 64655.7
luminescent signals (OCI-LY3; [6]): 68972.2
luminescent signals (OCI-LY3; [7]): 64472.02
luminescent signals (OCI-LY3; [8]): 55749.79
luminescent signals (OCI-LY3; [9]): 63477.51
luminescent signals (OCI-LY3; [10]): 59441.78
